Read-outs that look alike come from different tables or passages of the source.
Experiments:
JHDM1A = molecular target: T1, JHDM1A (Homo sapiens, UniProt Q9Y2K7); test: JHDM1A FLT protease protection assay; assay type: biochemical; settings: peptide 10 1 μM, JHDM1A 150 nM, 5 h; Endo-LysC up to 120 min
T1 construct: purchased BPS BioScience (via AMSBio, UK)
T1 sequence (Q9Y2K7 1-1162): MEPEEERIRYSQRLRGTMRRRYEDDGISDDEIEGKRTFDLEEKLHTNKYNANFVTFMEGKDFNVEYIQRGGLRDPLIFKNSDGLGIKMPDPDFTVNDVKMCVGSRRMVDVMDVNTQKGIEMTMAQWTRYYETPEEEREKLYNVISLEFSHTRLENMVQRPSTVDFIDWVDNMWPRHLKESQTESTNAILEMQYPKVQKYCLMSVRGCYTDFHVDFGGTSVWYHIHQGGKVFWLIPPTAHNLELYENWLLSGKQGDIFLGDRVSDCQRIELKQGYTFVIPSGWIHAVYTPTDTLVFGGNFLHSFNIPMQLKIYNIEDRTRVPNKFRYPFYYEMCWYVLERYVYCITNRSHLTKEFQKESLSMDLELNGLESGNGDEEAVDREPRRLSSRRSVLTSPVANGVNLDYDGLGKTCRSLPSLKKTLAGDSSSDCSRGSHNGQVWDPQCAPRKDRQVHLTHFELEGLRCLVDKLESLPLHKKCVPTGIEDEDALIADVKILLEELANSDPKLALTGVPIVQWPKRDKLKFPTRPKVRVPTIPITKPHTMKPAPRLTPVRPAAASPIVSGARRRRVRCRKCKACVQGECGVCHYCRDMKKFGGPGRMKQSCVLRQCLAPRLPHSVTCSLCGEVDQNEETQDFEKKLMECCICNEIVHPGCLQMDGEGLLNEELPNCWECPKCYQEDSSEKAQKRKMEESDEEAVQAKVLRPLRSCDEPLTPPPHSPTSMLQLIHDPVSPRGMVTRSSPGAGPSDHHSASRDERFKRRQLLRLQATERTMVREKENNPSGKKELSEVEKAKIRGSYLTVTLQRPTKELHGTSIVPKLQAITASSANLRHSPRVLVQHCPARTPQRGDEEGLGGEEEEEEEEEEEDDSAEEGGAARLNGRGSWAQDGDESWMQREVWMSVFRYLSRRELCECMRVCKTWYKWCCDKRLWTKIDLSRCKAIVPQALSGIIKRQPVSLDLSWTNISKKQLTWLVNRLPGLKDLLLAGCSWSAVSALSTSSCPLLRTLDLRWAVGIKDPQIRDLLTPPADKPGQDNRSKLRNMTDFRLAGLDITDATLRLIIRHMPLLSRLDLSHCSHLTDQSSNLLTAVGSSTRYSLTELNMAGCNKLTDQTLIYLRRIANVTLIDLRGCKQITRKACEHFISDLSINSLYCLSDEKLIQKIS
Protocol: The assay was performed in a 20 μl volume in a 384-well black microplate and contained peptide 10 (1 μM) and JHDM1A enzyme (150 nM) in assay buffer (50 mM Tris, pH 7.4, 100 μM sodium ascorbate, 10 μM ammonium ferrous sulfate, 100 μM α-ketoglutarate, 0.01% Tween-20). Control wells containing peptide only were also included. After 5 h incubation at room temperature, 10 μl of Endo-LysC (30 nM) was added to the wells and the plate incubated at room temperature for up to 120 min. FLTs were then measured in triplicate on a NanoTaurus plate reader.
Assays were performed in a 384-well microplate at room temperature with an assay volume of 20 μl per well. To wells containing recombinant JHDM1A enzyme in assay buffer (10 μl) was added peptide 10 in assay buffer (10 μl). Two sets of control wells containing peptide 10 only were included. The plate was shaken and then sealed with a coverslip. The final concentration of JHDM1A in the assay was 150 nM and 1 μM for peptide 10. After incubation at room temperature for 5 h, Endo-LysC (10 μl in assay buffer; final concentration 10 nM) was added to assay wells and one set of control wells. To the other set of control wells was added 10 μl of assay buffer. Following incubation at room temperature for 120 min, the microplate was centrifuged at 500 rpm for 1 min and FLTs measured. All measurements were performed in triplicate.

PCAF [1] = molecular target: T2, PCAF (Homo sapiens, UniProt Q92831); settings: literature (Poux et al. 2002); read-out: reported KM for AcCoA; cited from earlier work
T2 construct: purchased Enzo Life Sciences
T2 sequence (Q92831 whole entry): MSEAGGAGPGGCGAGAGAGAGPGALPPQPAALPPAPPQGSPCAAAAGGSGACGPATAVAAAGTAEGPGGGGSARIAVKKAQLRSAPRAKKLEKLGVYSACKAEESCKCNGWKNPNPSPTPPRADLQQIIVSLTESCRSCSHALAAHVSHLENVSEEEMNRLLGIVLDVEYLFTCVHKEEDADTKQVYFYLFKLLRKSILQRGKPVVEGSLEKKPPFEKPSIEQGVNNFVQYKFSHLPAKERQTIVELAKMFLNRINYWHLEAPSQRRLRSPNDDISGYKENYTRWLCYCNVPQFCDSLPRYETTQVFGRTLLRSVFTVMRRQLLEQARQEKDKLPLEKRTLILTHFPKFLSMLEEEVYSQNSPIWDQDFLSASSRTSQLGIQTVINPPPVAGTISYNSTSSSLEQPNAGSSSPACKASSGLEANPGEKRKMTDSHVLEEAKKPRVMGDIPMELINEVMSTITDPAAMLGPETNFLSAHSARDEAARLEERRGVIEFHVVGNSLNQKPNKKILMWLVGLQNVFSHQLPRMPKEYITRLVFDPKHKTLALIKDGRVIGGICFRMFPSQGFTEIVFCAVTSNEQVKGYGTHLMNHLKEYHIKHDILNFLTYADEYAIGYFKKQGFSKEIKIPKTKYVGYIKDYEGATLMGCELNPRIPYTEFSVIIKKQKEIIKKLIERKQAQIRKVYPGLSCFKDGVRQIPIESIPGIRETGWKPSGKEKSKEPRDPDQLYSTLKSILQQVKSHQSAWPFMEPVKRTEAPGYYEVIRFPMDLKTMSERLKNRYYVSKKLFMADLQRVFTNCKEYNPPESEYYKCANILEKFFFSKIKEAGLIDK

PCAF [2] = molecular target: T2, PCAF; test: PCAF FLT protease protection assay; assay type: biochemical; settings: peptide 17 (1 μM), 125 nM PCAF, 2 h; read-out: KM (app) for AcCoA
Protocol: The dependence of the PCAF assay on AcCoA concentration was investigated. The assay was performed in a 384-well microplate at room temperature for 2 h in assay buffer (20 μl) using 125 nM PCAF and 1 μM peptide 17. Concentrations of AcCoA were varied from 25 μM-0.02 μM.
For AcCoA titrations, to wells containing varying concentrations of AcCoA (5 μl in assay buffer) was added 5 μl of peptide 17 in assay buffer followed by 10 μl of PCAF in assay buffer. […] Following a further 90 min incubation at room temperature, FLTs were measured. All measurements were performed in triplicate.

increase in FLT following protease treatment after reaction with JHDM1A (JHDM1A)	Compound	Km (PCAF [1])	Km (PCAF [2])
over 1 ns	9AA-ATGGVK^36(Me)K(Me)PHRYW-CONH2 [peptide 10]	–	–
–	CC(=O)SCCNC(=O)CCNC(=O)[C@H](O)C(C)(C)COP(=O)(O)OP(=O)(O)OC[C@H]1O[C@@H](n2cnc3c(N)ncnc32)[C@H](O)[C@@H]1OP(=O)(O)O [AcCoA, acetyl co-enzyme A]	1.6 µM	1.2 µM

Source: patent US20140080162A1, “FLUORESCENCE LIFETIME EPIGENETICS ASSAYS” (ALMAC SCIENCES (SCOTLAND) LIMITED, priority 2011, published 2014)
